Measured values reported in patent US9695155B2, “Herbicidal substituted pyrimidinyloxy benzene compounds” (E. I. DU PONT DE NEMOURS AND COMPANY, priority 2013, dated 2017).

Tests used:
chickweed = assay: Test D preemergence; format: in vivo, Stellaria media; settings: Stellaria media, pre-emergence, scale 0-100, read-out: Plant response rating, Chickweed
Summary of the method: (§1)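 In a controlled growth environment, treated and control plants were held 7 to 21 days, then compared visually. Damage was scored 0–100, where 100 means complete control. Sprays contained surfactant in a non-phytotoxic solvent; post-applied plants were at the 1- to 4-leaf stage.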

bromegrass, downy = assay: Test D preemergence; format: in vivo, Bromus tectorum; settings: Bromus tectorum, pre-emergence, scale 0-100, read-out: Plant response rating, Bromegrass, Downy
Summary of the method: as §1

lambsquarters [1] = assay: Test D preemergence; format: in vivo, Chenopodium album; settings: Chenopodium album, pre-emergence, scale 0-100, read-out: Plant response rating, Lambsquarters
Summary of the method: as §1

spring wheat = assay: Test D preemergence; format: in vivo, Triticum aestivum; settings: Triticum aestivum, pre-emergence
Summary of the method: as §1

winter wheat = assay: Test D preemergence; format: in vivo, Triticum aestivum; settings: Triticum aestivum, pre-emergence
Summary of the method: as §1

field poppy = assay: Test D postemergence; format: in vivo, Papaver rhoeas; settings: Papaver rhoeas, post-emergence, scale 0 to 100 (0 no effect, 100 complete control), read-out: Plant response rating, Field Poppy
Summary of the method: as §1

deadnettle = assay: Test D postemergence; format: in vivo, Lamium amplexicaule; settings: Lamium amplexicaule, post-emergence, scale 0 to 100 (0 no effect, 100 complete control), read-out: Plant response rating, Deadnettle
Summary of the method: as §1

lambsquarters [2] = assay: Test D postemergence; format: in vivo, Chenopodium album; settings: Chenopodium album, post-emergence, scale 0 to 100 (0 no effect, 100 complete control), read-out: Plant response rating, Lambsquarters
Summary of the method: as §1

chamomile = assay: Test D postemergence; format: in vivo, Matricaria inodora; settings: Tripleurospermum inodorum, post-emergence, scale 0 to 100 (0 no effect, 100 complete control), read-out: Plant response rating, Chamomile
Summary of the method: as §1

wild oat = assay: Test D postemergence; format: in vivo, Avena fatua; settings: Avena fatua, post-emergence, scale 0 to 100 (0 no effect, 100 complete control), read-out: Plant response rating, Oat, Wild
Summary of the method: as §1

windgrass = assay: Test D postemergence; format: in vivo, Apera spica-venti; settings: Apera spica-venti, post-emergence, scale 0 to 100 (0 no effect, 100 complete control), read-out: Plant response rating, Windgrass
Summary of the method: as §1

Brazilian crabgrass = assay: Test E postemergence; format: in vivo, Digitaria horizontalis; settings: Digitaria horizontalis, post-emergence, read-out: Plant response rating, Crabgrass, Brazil
Summary of the method: (§2)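 Response was scored visually on a 0-100 scale (100 = complete control) versus controls after 14 to 21 days in the greenhouse. Test chemicals, formulated with surfactant in a non-phytotoxic solvent mixture, had been applied preemergence to seeds in silt loam soil or postemergence to 1- to 4-leaf plants in potting medium.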

arrowleaf sida = assay: Test E postemergence; format: in vivo, Sida rhombifolia; settings: Sida rhombifolia, post-emergence, read-out: Plant response rating, Arrowleaf Sida
Summary of the method: as §2

dayflower = assay: Test E postemergence; format: in vivo, Commelina virginica; settings: Commelina virginica, post-emergence, read-out: Plant response rating, Dayflower, VA
Summary of the method: as §2

[3] = Postemergence, 31 g ai/ha, scale 0 to 100
[4] = Postemergence, 62 g ai/ha, scale 0 to 100
[5] = Postemergence, 125 g ai/ha, scale 0 to 100
[6] = Postemergence, 250 g ai/ha, scale 0 to 100
[7] = postemergence, 16 g ai/ha, scale 0 to 100, 0 no effect, 100 complete control

N#Cc1cccc(Oc2ncc(Cl)cn2)c1-n1cc(C(F)(F)F)cn1 [Compound 58, 3-[(5-chloro-2-pyrimidinyl)oxy]-2-[4-(trifluoromethyl)-1H-pyrazol-1-yl]benzonitrile]
55%: pest or weed control at 250 g/ha (wild oat; 250 g ai/ha) | pest or weed control at 125 g/ha (windgrass; 125 g ai/ha) | pest or weed control at 125 g/ha (Brazilian crabgrass; [5])
95%: pest or weed control at 125 g/ha (lambsquarters [2]; 125 g ai/ha) | pest or weed control at 125 g/ha (arrowleaf sida; [5])
98%: pest or weed control at 250 g/ha (arrowleaf sida; [6])
70%: pest or weed control at 16 g/ha (arrowleaf sida; [7])
60%: pest or weed control at 31 g/ha (dayflower; [3])
50%: plant injury at 125 g/ha (winter wheat; 125 g ai/ha, scale 0-100, read-out: Plant response rating, Wheat, Winter) | pest or weed control at 16 g/ha (dayflower; [7])
10%: pest or weed control at 31 g/ha (bromegrass, downy; 31 g ai/ha) | pest or weed control at 31 g/ha (chamomile; 31 g ai/ha) | pest or weed control at 16 g/ha (Brazilian crabgrass; [7])
85%: pest or weed control at 62 g/ha (field poppy; 62 g ai/ha)
20%: plant injury at 62 g/ha (winter wheat; 62 g ai/ha, scale 0-100, read-out: Plant response rating, Wheat, Winter) | pest or weed control at 31 g/ha (windgrass; 31 g ai/ha) | pest or weed control at 31 g/ha (Brazilian crabgrass; [3])
30%: pest or weed control at 31 g/ha (wild oat; 31 g ai/ha)
40%: pest or weed control at 62 g/ha (Brazilian crabgrass; [4])
100%: pest or weed control at 31 g/ha (chickweed; 31 g ai/ha) | pest or weed control at 62 g/ha (chickweed; 62 g ai/ha) | pest or weed control at 125 g/ha (chickweed; 125 g ai/ha) | pest or weed control at 250 g/ha (chickweed; 250 g ai/ha) | pest or weed control at 31 g/ha (lambsquarters [1]; 31 g ai/ha) | pest or weed control at 62 g/ha (lambsquarters [1]; 62 g ai/ha) | pest or weed control at 125 g/ha (lambsquarters [1]; 125 g ai/ha) | pest or weed control at 250 g/ha (lambsquarters [1]; 250 g ai/ha) | plant injury at 250 g/ha (spring wheat; 250 g ai/ha, scale 0-100, read-out: Plant response rating, Wheat, Spring) | pest or weed control at 125 g/ha (field poppy; 125 g ai/ha) | pest or weed control at 250 g/ha (field poppy; 250 g ai/ha) | pest or weed control at 62 g/ha (deadnettle; 62 g ai/ha) | pest or weed control at 125 g/ha (deadnettle; 125 g ai/ha) | pest or weed control at 250 g/ha (deadnettle; 250 g ai/ha) | pest or weed control at 250 g/ha (dayflower; [6])
80%: pest or weed control at 31 g/ha (field poppy; 31 g ai/ha) | pest or weed control at 31 g/ha (deadnettle; 31 g ai/ha) | pest or weed control at 31 g/ha (arrowleaf sida; [3])
75%: pest or weed control at 250 g/ha (bromegrass, downy; 250 g ai/ha) | plant injury at 125 g/ha (spring wheat; 125 g ai/ha, scale 0-100, read-out: Plant response rating, Wheat, Spring) | pest or weed control at 31 g/ha (lambsquarters [2]; 31 g ai/ha) | pest or weed control at 250 g/ha (Brazilian crabgrass; [6]) | pest or weed control at 62 g/ha (dayflower; [4])
25%: pest or weed control at 62 g/ha (chamomile; 62 g ai/ha)
90%: plant injury at 250 g/ha (winter wheat; 250 g ai/ha, scale 0-100, read-out: Plant response rating, Wheat, Winter) | pest or weed control at 62 g/ha (lambsquarters [2]; 62 g ai/ha) | pest or weed control at 250 g/ha (lambsquarters [2]; 250 g ai/ha) | pest or weed control at 250 g/ha (windgrass; 250 g ai/ha) | pest or weed control at 62 g/ha (arrowleaf sida; [4]) | pest or weed control at 125 g/ha (dayflower; [5])
0%: plant injury at 31 g/ha (spring wheat; 31 g ai/ha, scale 0 (no effect) to 100 (complete control), read-out: Plant response rating, Wheat, Spring) | plant injury at 31 g/ha (winter wheat; 31 g ai/ha, scale 0 (no effect) to 100 (complete control), read-out: Plant response rating, Wheat, Winter)
35%: pest or weed control at 125 g/ha (bromegrass, downy; 125 g ai/ha) | pest or weed control at 125 g/ha (chamomile; 125 g ai/ha) | pest or weed control at 250 g/ha (chamomile; 250 g ai/ha) | pest or weed control at 62 g/ha (wild oat; 62 g ai/ha) | pest or weed control at 125 g/ha (wild oat; 125 g ai/ha) | pest or weed control at 62 g/ha (windgrass; 62 g ai/ha)
15%: pest or weed control at 62 g/ha (bromegrass, downy; 62 g ai/ha) | plant injury at 62 g/ha (spring wheat; 62 g ai/ha, scale 0-100, read-out: Plant response rating, Wheat, Spring)
